Series [1] is described as follows: Neurotoxicity against non-differentiated human SH-SY5Y cells assessed as reduction in cell viability at 100 uM measured after 24 hrs by MTT assay relative to control. It counts as toxicity, cell-based. On the technique in general: Tetrazolium dyes change colour on reduction, which living cells bring about.
The nature of series [2]: Neurotoxicity against retinoic acid/TPA differentiated human SH-SY5Y cells assessed as reduction in cell viability at 100 uM measured after 48 hrs by MTT assay relative to control. It is filed as toxicity, cell-based.
The subject of series [3] is SH-SY5Y. Kind of series: Neuroprotective activity against 6-OHDA-induced cytotoxicity in differentiated human SH-SY5Y cells at 100 uM incubated for 48 hrs by MTT reduction assay relative to control. It is filed as functional.
Series [4] relates to SH-SY5Y. The experiment in a line: Neuroprotective activity against 6-OHDA-induced cytotoxicity in differentiated human SH-SY5Y cells at 100 uM incubated for 48 hrs by NR uptake assay. It counts as functional, cell-based.
The test system of series [5] is SH-SY5Y. Kind of series: Neuroprotective activity against PQ-induced cytotoxicity in differentiated human SH-SY5Y cells assessed as viable cells at 100 uM incubated for 48 hrs by MTT reduction assay (reference value: 46.02 +/- 3.61%). It is filed as functional. To be noted: read-out: Activity.
For series [6], the system named is SH-SY5Y. The experiment in a line: Neuroprotective activity against PQ-induced cytotoxicity in differentiated human SH-SY5Y cells assessed as NR uptake at 100 uM incubated for 48 hrs by NR uptake assay (reference value: 36.78 +/- 9.57%). It is filed as functional.
Series [7] relates to SH-SY5Y. Kind of series: Neuroprotective activity in amyloid beta (25 to 35)-induced non-differentiated human SH-SY5Y cells assessed as reduction in protein aggregation at 100 uM incubated for 24 hrs by ThT fluorescence assay relative to control. It counts as functional.
Series [8] has as its system SH-SY5Y. Kind of series: Neuroprotective activity against PQ-induced cytotoxicity in differentiated human SH-SY5Y cells at 100 uM incubated for 48 hrs by MTT reduction assay. Details: scale not given: the % may be the effect or the level left. It is filed as functional.
Series [9] relates to SH-SY5Y. Kind of series: Neuroprotective activity against 6-OHDA-induced cytotoxicity in differentiated human SH-SY5Y cells assessed as NR uptake at 100 uM incubated for 48 hrs by NR uptake assay (reference value: 61.31 +/- 12.93%). It is filed as functional.
For series [10], the system named is SH-SY5Y. The experiment in a line: Neuroprotective activity against PQ-induced cytotoxicity in differentiated human SH-SY5Y cells at 100 uM incubated for 48 hrs by NR uptake assay. It is filed as functional.

The structures appear in SMILES notation. Calls of active or inactive are those of the source. The rule behind the calls is not given here. A value given as a limit tells only on which side of the number the result lay.

Take `COC(=O)[C@H](CCC(=O)N[C@@H]1CCc2ccccc21)NC(=O)[C@@H]1[C@H]2CC[C@H](C2)N1C(=O)CNC(=O)OC(C)(C)C`: the Activity in series [1] turned out to be 32.77%. The “Cell viability (% of control)” value in [2] was 94.07%. The result in the series on SH-SY5Y [3] and in the series with SH-SY5Y [4] was inactive.

With `N[C@@H]1CCc2ccccc21`, the viability at 100 µM in the series with SH-SY5Y [5] was determined as 23.6%. Moreover, the Activity with SH-SY5Y [6] is listed as 22.95%.

On to `COC(=O)[C@H](CCC(=O)NC12CC3CC(CC(C3)C1)C2)NC(=O)[C@@H]1[C@H]2CC[C@H](C2)N1C(=O)CNC(=O)OC(C)(C)C`, for which, in series [1], the Activity was 89.94%.

On to `COC(=O)CC[C@H](NC(=O)[C@@H]1CCCN1C(=O)CN)C(=O)N[C@@H]1CCc2ccccc21`, for which the outcome in the series with SH-SY5Y [7] was Active.

As to `NC12CC3CC(CC(C3)C1)C2` [AMANTADINE], in the series with SH-SY5Y [7], the Activity was determined as 17%.

In the case of `COC(=O)CC[C@H](NC(=O)[C@@H]1[C@H]2CC[C@H](C2)N1C(=O)CN)C(=O)NC12CC3CC(CC(C3)C1)C2.O=C(O)C(F)(F)F`, the Activity in series [1] is on record as 93.91%; with SH-SY5Y [7] it was 20%; in the series with SH-SY5Y [8], 5%. Moreover, the “Cell viability (% of control)” value in series [2] is listed as 102.46%. Moreover, the outcome with SH-SY5Y [3] and with SH-SY5Y [4] was inactive.

For the compound `COC(=O)CC[C@H](NC(=O)[C@@H]1[C@H]2CC[C@H](C2)N1C(=O)CN(C)C)C(=O)N[C@@H]1CCc2ccccc21`, the “Cell viability (% of control)” value in [2] came to 100.56%. Further, the result with SH-SY5Y [3] and with SH-SY5Y [4] was inactive.

Take `COC(=O)CC[C@H](NC(=O)[C@@H]1[C@H]2CC[C@H](C2)N1C(=O)CN)C(=O)N[C@@H]1CCc2ccccc21.O=C(O)C(F)(F)F`: the Activity in [1] amounted to 96.04%; in the series on SH-SY5Y [8] it was 4%; with SH-SY5Y [6], 40.76%. Further, the result with SH-SY5Y [7], in the series on SH-SY5Y [3] and in the series on SH-SY5Y [4] was inactive. In addition, in [2], the “Cell viability (% of control)” value was 98.48%.

With `COC(=O)[C@H](CCC(=O)N[C@@H]1CCc2ccccc21)NC(=O)[C@@H]1CCCN1C(=O)CN`, in the series with SH-SY5Y [7], the outcome was Active.

Regarding `COC(=O)CC[C@H](NC(=O)[C@@H]1[C@H]2CC[C@H](C2)N1C(=O)CNC(=O)OC(C)(C)C)C(=O)N[C@@H]1CCc2ccccc21`, the Activity in series [1] was 86.49%. The result in the series with SH-SY5Y [7] was inactive.

Regarding `NCC(=O)N1CCC[C@H]1C(=O)N[C@@H](CCC(=O)O)C(=O)O`, the Activity in the series with SH-SY5Y [7] was 12%; in the series on SH-SY5Y [9], 25.32%; with SH-SY5Y [6], 36.33%; with SH-SY5Y [3], 12%. In addition, the viability at 100 µM in the series with SH-SY5Y [5] came to 25.3%.

On to `COC(=O)[C@H](CCC(=O)N[C@@H]1CCc2ccccc21)NC(=O)[C@@H]1[C@H]2CC[C@H](C2)N1C(=O)CN(C)C`, for which the Activity was 90.95% in [1], “<=15%” with SH-SY5Y [10] and 12% with SH-SY5Y [8]. Further, the result with SH-SY5Y [7], with SH-SY5Y [3] and with SH-SY5Y [4] was inactive. For the same compound, in [2], the “Cell viability (% of control)” value turned out to be 96.47%.

Turning to `COC(=O)[C@H](CCC(=O)NC12CC3CC(CC(C3)C1)C2)NC(=O)[C@@H]1CCCN1C(=O)CN`, the result with SH-SY5Y [7] was inactive.

For the compound `COC(=O)CC[C@H](NC(=O)[C@@H]1[C@H]2CC[C@H](C2)N1C(=O)CN(C)C)C(=O)NC12CC3CC(CC(C3)C1)C2`, the Activity in [1] amounted to 97.93%; with SH-SY5Y [7], 24%.

As to `COC(=O)CC[C@H](NC(=O)[C@@H]1[C@H]2CC[C@H](C2)N1C(=O)CNC(=O)OC(C)(C)C)C(=O)NC12CC3CC(CC(C3)C1)C2`, the Activity in series [1] turned out to be 90.79%.

For the compound `COC(=O)CC[C@H](NC(=O)[C@@H]1[C@H]2CC[C@H](C2)N1C(=O)CNC(=O)OC(C)(C)C)C(=O)NC12CC3CC(C)(CC(C)(C3)C1)C2`, the viability at 100 µM in the series with SH-SY5Y [5] was determined as 38.8%. Further, the “Cell viability (% of control)” value in series [2] is 98.1%. Also, the outcome in the series with SH-SY5Y [3] and in the series on SH-SY5Y [4] was inactive.

In the case of `COC(=O)[C@H](CCC(=O)NC12CC3CC(C)(CC(C)(C3)C1)C2)NC(=O)[C@@H]1[C@H]2CC[C@H](C2)N1C(=O)CN(C)C`, the Activity in series [1] worked out at 32.77%. Moreover, in series [2], the “Cell viability (% of control)” value stood at 9.07%.

`COC(=O)[C@H](CCC(=O)NC12CC3CC(C)(CC(C)(C3)C1)C2)NC(=O)[C@@H]1[C@H]2CC[C@H](C2)N1C(=O)CN.O=C(O)C(F)(F)F`: the Activity in [1] is 32.77%.

`COC(=O)[C@H](CCC(=O)NC12CC3CC(CC(C3)C1)C2)NC(=O)[C@@H]1[C@H]2CC[C@H](C2)N1C(=O)CN.O=C(O)C(F)(F)F`: the Activity is 89.15% in [1] and 40.94% with SH-SY5Y [6]. The “Cell viability (% of control)” value in series [2] was found to be 96.82%. Moreover, the outcome in the series with SH-SY5Y [3] and with SH-SY5Y [4] was inactive.

Values taken from ChEMBL document CHEMBL6134783, “Discovery of hybrid Glypromate conjugates with neuroprotective activity against paraquat-induced toxicity” (RSC Med Chem, 2024).
